# Laboratory results from patent publication US20230085307A1, “PYRIDAZINONE COMPOUND AND HERBICIDE” (NISSAN CHEMICAL CORPORATION, priority 2019, published 2023).
# Tested on: Japanese bulrush
# Assay: Test Example 1: herbicidal activity, application before weed generation under submerged conditions (Table 16, symbol B)
# Format: in vivo, Japanese bulrush (Schoenoplectus juncoides)
# Details: amount of applied herbicide 320 g/ha
# Method in brief: (§1)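 Emulsion formulation, water-diluted to set dose, was put onto the flooded surface (4 cm depth, alluvial soil) the same day weeds were sown and 2.5-leaf rice transplanted. After 3 weeks at 25-30 °C under glass, each species was rated 0 (≤5% kill) to 5 (≥90% kill).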
row,SMILES,"Herbicidal effect, B: Japanese bulrush"
1,COc1cc(F)ccc1-c1sc2cc(Cl)ccc2c1-c1c(O)c(C)nn(C)c1=O [3-043],1 (Herbicidal rate of 5% or more and less than 20%)
2,CCCOc1ccc2c(-c3c(O)c(C)nn(C)c3=O)c(-c3ccccc3OC)sc2c1 [3-099],5 (Herbicidal rate of 90% or more (almost completely withered))

# Tested on: southern crabgrass
# Assay: Test Example 5: herbicidal effect by foliage application, plastic box (Table 20, symbol F)
# Format: in vivo, southern crabgrass (Digitaria ciliaris)
# Details: foliage application, 320 g/ha, three weeks after application
# Method in brief: (§2)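 Post-emergence foliar test in sterilized diluvial soil. Compound applied as water-diluted emulsion at a predetermined rate to 14-day-old plants; evaluation at three weeks.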
row,SMILES,"F: southern crabgrass, herbicidal effect grade"
1,COc1cc(F)ccc1-c1sc2cc(Cl)ccc2c1-c1c(O)c(C)nn(C)c1=O [3-043],0 (Herbicidal rate of 5% or less (almost no effect))
2,CCCOc1ccc2c(-c3c(O)c(C)nn(C)c3=O)c(-c3ccccc3OC)sc2c1 [3-099],5 (Herbicidal rate of 90% or more (almost completely withered))

# Tested on: late watergrass
# Assay: Test Example 2: herbicidal activity, application during weed generation under submerged conditions (Table 17, symbol A)
# Format: in vivo, late watergrass (Echinochloa oryzicola)
# Details: AAH 320 g/ha; application during weed generation, submerged conditions
# Method in brief: (§3)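 In this pot test, flooded alluvial soil (water depth 4 cm) holds all three species sown as a mixture. Once seedlings have one to two leaves, the compound's emulsion, thinned with water to the intended dose, is poured on the water; grading follows after three weeks on the earlier criteria.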
row,SMILES,"herbicidal effect rating, A: late watergrass"
1,COc1cc(F)ccc1-c1sc2cc(Cl)ccc2c1-c1c(O)c(C)nn(C)c1=O [3-043],3 (Herbicidal rate of 40% or more and less than 70%)
2,CCCOc1ccc2c(-c3c(O)c(C)nn(C)c3=O)c(-c3ccccc3OC)sc2c1 [3-099],3 (Herbicidal rate of 40% or more and less than 70%)

# Tested on: redroot pigweed
# Assay: Test Example 4: herbicidal effect by soil treatment (Table 19, symbol N)
# Format: in vivo, redroot pigweed (Amaranthus retroflexus)
# Details: amount of applied herbicide 320 g/ha
# Method in brief: (§4)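 Emulsion of test compound, water-diluted to predetermined amount, sprayed on soil after sowing (seed depth ~1.5 cm, sterilized diluvial soil). Greenhouse, 25–30° C. Effect graded at three weeks post-spray.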
row,SMILES,"N: redroot pigweed, herbicidal effect grade"
1,COc1cc(F)ccc1-c1sc2cc(Cl)ccc2c1-c1c(O)c(C)nn(C)c1=O [3-043],4 (Herbicidal rate of 70% or more and less than 90%)
2,CCCOc1ccc2c(-c3c(O)c(C)nn(C)c3=O)c(-c3ccccc3OC)sc2c1 [3-099],5 (Herbicidal rate of 90% or more (almost completely withered))

# Tested on: redroot pigweed
# Assay: Test Example 5: herbicidal effect by foliage application, plastic box (Table 20, symbol N)
# Format: in vivo, redroot pigweed (Amaranthus retroflexus)
# Details: foliage application, 320 g/ha, three weeks after application
# Method in brief: as §2
row,SMILES,"N: redroot pigweed, herbicidal effect grade"
1,COc1cc(F)ccc1-c1sc2cc(Cl)ccc2c1-c1c(O)c(C)nn(C)c1=O [3-043],2 (Herbicidal rate of 20% or more and less than 40%)
2,CCCOc1ccc2c(-c3c(O)c(C)nn(C)c3=O)c(-c3ccccc3OC)sc2c1 [3-099],5 (Herbicidal rate of 90% or more (almost completely withered))

# Tested on: southern crabgrass
# Assay: Test Example 4: herbicidal effect by soil treatment (Table 19, symbol F)
# Format: in vivo, southern crabgrass (Digitaria ciliaris)
# Details: amount of applied herbicide 320 g/ha
# Method in brief: as §4
row,SMILES,"F: southern crabgrass, herbicidal effect grade"
1,COc1cc(F)ccc1-c1sc2cc(Cl)ccc2c1-c1c(O)c(C)nn(C)c1=O [3-043],0 (Herbicidal rate of 5% or less (almost no effect))
2,CCCOc1ccc2c(-c3c(O)c(C)nn(C)c3=O)c(-c3ccccc3OC)sc2c1 [3-099],5 (Herbicidal rate of 90% or more (almost completely withered))

# Tested on: oval-leafed pondweed
# Assay: Test Example 2: herbicidal activity, application during weed generation under submerged conditions (Table 17, symbol C)
# Format: in vivo, oval-leafed pondweed (Monochoria vaginalis)
# Details: AAH 320 g/ha; application during weed generation, submerged conditions
# Method in brief: as §3
row,SMILES,"herbicidal effect rating, C: oval-leafed pondweed"
1,COc1cc(F)ccc1-c1sc2cc(Cl)ccc2c1-c1c(O)c(C)nn(C)c1=O [3-043],0 (Herbicidal rate of 5% or less (almost no effect))
2,CCCOc1ccc2c(-c3c(O)c(C)nn(C)c3=O)c(-c3ccccc3OC)sc2c1 [3-099],3 (Herbicidal rate of 40% or more and less than 70%)

# Tested on: chickweed
# Assay: Test Example 4: herbicidal effect by soil treatment (Table 19, symbol P)
# Format: in vivo, common chickweed (Stellaria media)
# Details: amount of applied herbicide 320 g/ha
# Method in brief: as §4
row,SMILES,"P: chickweed, herbicidal effect grade"
1,COc1cc(F)ccc1-c1sc2cc(Cl)ccc2c1-c1c(O)c(C)nn(C)c1=O [3-043],4 (Herbicidal rate of 70% or more and less than 90%)
2,CCCOc1ccc2c(-c3c(O)c(C)nn(C)c3=O)c(-c3ccccc3OC)sc2c1 [3-099],3 (Herbicidal rate of 40% or more and less than 70%)

# Tested on: late watergrass
# Assay: Test Example 1: herbicidal activity, application before weed generation under submerged conditions (Table 16, symbol A)
# Format: in vivo, late watergrass (Echinochloa oryzicola)
# Details: amount of applied herbicide 320 g/ha
# Method in brief: as §1
row,SMILES,"Herbicidal effect, A: late watergrass"
1,COc1cc(F)ccc1-c1sc2cc(Cl)ccc2c1-c1c(O)c(C)nn(C)c1=O [3-043],0 (Herbicidal rate of 5% or less (almost no effect))
2,CCCOc1ccc2c(-c3c(O)c(C)nn(C)c3=O)c(-c3ccccc3OC)sc2c1 [3-099],5 (Herbicidal rate of 90% or more (almost completely withered))

# Tested on: green foxtail
# Assay: Test Example 5: herbicidal effect by foliage application, plastic box (Table 20, symbol G)
# Format: in vivo, green foxtail (Setaria viridis)
# Details: foliage application, 320 g/ha, three weeks after application
# Method in brief: as §2
row,SMILES,"G: green foxtail, herbicidal effect grade"
1,COc1cc(F)ccc1-c1sc2cc(Cl)ccc2c1-c1c(O)c(C)nn(C)c1=O [3-043],5 (Herbicidal rate of 90% or more (almost completely withered))
2,CCCOc1ccc2c(-c3c(O)c(C)nn(C)c3=O)c(-c3ccccc3OC)sc2c1 [3-099],5 (Herbicidal rate of 90% or more (almost completely withered))

# Tested on: velvetleaf
# Assay: Test Example 4: herbicidal effect by soil treatment (Table 19, symbol M)
# Format: in vivo, velvetleaf (Abutilon theophrasti)
# Details: amount of applied herbicide 320 g/ha
# Method in brief: as §4
row,SMILES,"M: velvetleaf, herbicidal effect grade"
1,COc1cc(F)ccc1-c1sc2cc(Cl)ccc2c1-c1c(O)c(C)nn(C)c1=O [3-043],3 (Herbicidal rate of 40% or more and less than 70%)
2,CCCOc1ccc2c(-c3c(O)c(C)nn(C)c3=O)c(-c3ccccc3OC)sc2c1 [3-099],3 (Herbicidal rate of 40% or more and less than 70%)

# Tested on: persian speedwell
# Assay: Test Example 4: herbicidal effect by soil treatment (Table 19, symbol R)
# Format: in vivo, Persian speedwell (Veronica persica)
# Details: amount of applied herbicide 320 g/ha
# Method in brief: as §4
row,SMILES,"R: persian speedwell, herbicidal effect grade"
1,COc1cc(F)ccc1-c1sc2cc(Cl)ccc2c1-c1c(O)c(C)nn(C)c1=O [3-043],3 (Herbicidal rate of 40% or more and less than 70%)
2,CCCOc1ccc2c(-c3c(O)c(C)nn(C)c3=O)c(-c3ccccc3OC)sc2c1 [3-099],4 (Herbicidal rate of 70% or more and less than 90%)

# Tested on: oval-leafed pondweed
# Assay: Test Example 1: herbicidal activity, application before weed generation under submerged conditions (Table 16, symbol C)
# Format: in vivo, oval-leafed pondweed (Monochoria vaginalis)
# Details: amount of applied herbicide 320 g/ha
# Method in brief: as §1
row,SMILES,"Herbicidal effect, C: oval-leafed pondweed"
1,COc1cc(F)ccc1-c1sc2cc(Cl)ccc2c1-c1c(O)c(C)nn(C)c1=O [3-043],2 (Herbicidal rate of 20% or more and less than 40%)
2,CCCOc1ccc2c(-c3c(O)c(C)nn(C)c3=O)c(-c3ccccc3OC)sc2c1 [3-099],5 (Herbicidal rate of 90% or more (almost completely withered))

# Tested on: wild oat
# Assay: Test Example 4: herbicidal effect by soil treatment (Table 19, symbol I)
# Format: in vivo, wild oat (Avena fatua)
# Details: amount of applied herbicide 320 g/ha
# Method in brief: as §4
row,SMILES,"I: wild oat, herbicidal effect grade"
1,COc1cc(F)ccc1-c1sc2cc(Cl)ccc2c1-c1c(O)c(C)nn(C)c1=O [3-043],0 (Herbicidal rate of 5% or less (almost no effect))
2,CCCOc1ccc2c(-c3c(O)c(C)nn(C)c3=O)c(-c3ccccc3OC)sc2c1 [3-099],0 (Herbicidal rate of 5% or less (almost no effect))

# Tested on: barnyard grass
# Assay: Test Example 3: herbicidal effect by foliage application, Wagner pot (Table 18, symbol H)
# Format: in vivo, barnyard grass (Echinochloa crus-galli)
# Details: 320 g/ha
# Method in brief: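 Plants were sown in alluvial soil held under 0.1–0.5 cm standing water and grown 14 days in a greenhouse at 25–30 °C. An emulsifiable formulation, water-diluted to the set dose, was then sprayed onto the foliage, and effects were scored three weeks later using previously defined criteria.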
row,SMILES,herbicidal effect on barnyard grass (H)
1,COc1cc(F)ccc1-c1sc2cc(Cl)ccc2c1-c1c(O)c(C)nn(C)c1=O [3-043],5 (Herbicidal rate of 90% or more (almost completely withered))
2,CCCOc1ccc2c(-c3c(O)c(C)nn(C)c3=O)c(-c3ccccc3OC)sc2c1 [3-099],5 (Herbicidal rate of 90% or more (almost completely withered))
